Columns and labels:
[1] = test system: A549 cells; assay: IC50 of derivatives (Table 5); format: cell-based, human; conditions: Homo sapiens; Table 5; cell line only named in b213 (A549)
[2] = test system: S2 cells; assay: Spindle phenotypes in live S2 cells expressing GFP-tagged tubulin; format: cell-based, Drosophila; conditions: 300 nM
Description: This will permit using Drosophila proteins for binding studies in vitro, and genetics-based tools for further study of the target.

[3] = test system: A549 spheroids; assay: Multicellular tumour spheroids; format: cell-based, human
Method: (§1) FIGS. 5A, 5B, 5C, 5D, 5E, 5F, 5G, 5H, 5I, 5J, 5K, 5L and 5M show how C75 disrupts or reduces the growth of HeLa, HCT116 and A549 spheroids. FIG. 5A) images show HeLa spheroids over time (3 days) before and after treatment with control (1 μM C87; n=10), 250 nM (n=6) or 500 nM (n=10) of C75. The scale bar is 100 μm. FIG. 5B) is a series images of HeLa spheroids after three days of treatment with control (500 nM C87) or 500 nM C75. The spheroids were stained for fluorescein diacetate (to detect live cells) and propidium iodide (to detect dead cells). […] The scale bar is 100 μm. FIG. 5C) is a line graph showing the change in spheroid area (μm^2) for each day and treatment as indicated. Bars show standard deviation and the asterisks are p<0.05 as determined by the student's t test. FIG. 5D) images show HeLa spheroids over 3 days before and after treatment with empty nanoparticles (control; n=3) or 250 nM of nanoparticle-encapsulated C75 (n=3). The scale bar is 100 μm. […] Bars show standard deviation and the asterisks are p<0.05 as determined by the student's t test. FIG. 5F) is a series of images of HCT116 spheroids treated with control (1 μM C87; n=10), 500 nM C75 (n=10) and 1 μM C75 (n=10). […] Bars show standard deviation and the asterisks are p<0.05 as determined by the student's t test. […] Bars show standard deviation and the asterisks are p<0.05 as determined by the student's t test. […]

[4] = test system: HeLa spheroids; assay: Multicellular tumour spheroids; format: cell-based, human
Method: as §1

[5] = target: Purified free alpha and beta tubulin dimers (Homo sapiens, UniProt P07437+Q71U36); assay: Microtubule polymerization in vitro; format: biochemical; conditions: 35 minutes at 37° C., Mg2+ and GTP, 20% glycerol buffer
Method: FIG. 10 is a graph showing microtubule polymerization in vitro in the presence of 200 nM C75 or DMSO (control). Bars show SEM. Microtubules fail to polymerize in the presence of C75, but not in control samples, showing that tubulin could be a target of C75 in vitro.
Purified free alpha and beta tubulin dimers were added at a concentration of […] to a 20% glycerol buffer and allowed to polymerize in the presence of Mg^2+ and GTP for 35 minutes at 37° C. While DMSO had no effect on microtubule polymerization, 200 nM of C75 prevented polymerization. […] This supports that C75 binds tubulin at a different site compared to other microtubule-depolymerizing drugs.

For `COc1ccc(S(=O)(=O)N2Cc3ccccc3-c3sc(Br)cc32)cc1` [Compound C75], the IC50 [1] was 0.431 µM, the “spindle phenotype in Drosophila S2 cells” value [2] was “spindle phenotypes similar to what was observed in mammalian cells” and the effect on spheroids [3] was “regress the growth”. The effect on spheroids [4] was “disrupt” and the “concentration that prevented microtubule polymerization” value [5] was 200 nM.

From patent publication US20200276181A1, “THIENOISOQUINOLINES AND THEIR DERIVATIVES FOR TARGETING TUBULIN, CH-TOG, AURORA A KINASE, TPX2, CDK5RAP2 AND/OR ASPM” (VALORBEC, SEC, priority 2017, published 2020)
